Measurements: patent US20230017045A1, “PYRIDINE AND PYRIMIDINE CARBOXYLATE HERBICIDES AND METHODS OF USE THEREOF” (Dow AgroSciences LLC, priority 2017, published 2023)
Where two headings read alike, the source gives them in different places.

Test system: test plant species
Test: Post-emergent herbicidal activity test (greenhouse, foliar spray, visual growth reduction)
Format: in vivo
Details: post-emergence, 336 h, 140 g ai/ha
Procedure, shortened: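 Plants grown in greenhouse (15 h photoperiod, 23-29° C day/22-28° C night) to first or second true leaf stage were sprayed overhead with compound in acetone/water/isopropanol/DMSO/crop oil/X-77 carrier at 187 L/ha. Injury was scored visually after 14 d on a 0-100% scale versus solvent-blank and untreated controls.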

[1] = ECHCG: barnyardgrass (Echinochloa crus-galli), 14 days after application, read-out: Visual Growth Reduction (%) 14 Days After Application, ECHCG
[2] = IPOHE: ivy-leaf morning glory (Ipomoea hederacea), 14 days after application, read-out: Visual Growth Reduction (%) 14 Days After Application, IPOHE
[3] = KCHSC: kochia (Bassia scoparia), 14 days after application, read-out: Visual Growth Reduction (%) 14 Days After Application, KCHSC
[4] = ORYSA: rice (Oryza sativa), 14 days after application, read-out: Visual Growth Reduction (%) 14 Days After Application, ORYSA
[5] = SETFA: giant foxtail (Setaria faberi), 14 days after application, read-out: Visual Growth Reduction (%) 14 Days After Application, SETFA
[6] = SORVU: grain sorghum (Sorghum vulgare), 14 days after application, read-out: Visual Growth Reduction (%) 14 Days After Application, SORVU
[7] = STEME: common chickweed (Stellaria media), 14 days after application, read-out: Visual Growth Reduction (%) 14 Days After Application, STEME
[8] = TRZAS: wheat, spring (Triticum aestivum), 14 days after application, read-out: Visual Growth Reduction (%) 14 Days After Application, TRZAS
[9] = blackgrass (Alopecurus myosuroides), 14 Days After Application, read-out: Visual Growth Reduction (%) ALOMY
[10] = canada thistle (Cirsium arvense), 14 Days After Application, read-out: Visual Growth Reduction (%) CIRAR
[11] = crabgrass (Digitaria sanguinalis), 14 Days After Application, read-out: Visual Growth Reduction (%) DIGSA
[12] = lambsquarters (Chenopodium album), 14 Days After Application, read-out: Visual Growth Reduction (%) CHEAL
[13] = redroot pigweed (Amaranthus retroflexus), 14 Days After Application, read-out: Visual Growth Reduction (%) AMARE
[14] = wild oat (Avena fatua), 14 Days After Application, read-out: Visual Growth Reduction (%) AVEFA
[15] = yellow nutsedge (Cyperus esculentus), 14 Days After Application, read-out: Visual Growth Reduction (%) CYPES
[16] = ALOMY: blackgrass (Alopecurus myosuroides), 14 days after application, read-out: Visual Growth Reduction (%) 14 Days After Application, ALOMY
[17] = AMARE: redroot pigweed (Amaranthus retroflexus), 14 days after application, read-out: Visual Growth Reduction (%) 14 Days After Application, AMARE
[18] = AVEFA: wild oat (Avena fatua), 14 days after application, read-out: Visual Growth Reduction (%) 14 Days After Application, AVEFA
[19] = CHEAL: lambsquarters (Chenopodium album), 14 days after application, read-out: Visual Growth Reduction (%) 14 Days After Application, CHEAL
[20] = CIRAR: canada thistle (Cirsium arvense), 14 days after application, read-out: Visual Growth Reduction (%) 14 Days After Application, CIRAR
[21] = CYPES: yellow nutsedge (Cyperus esculentus), 14 days after application, read-out: Visual Growth Reduction (%) 14 Days After Application, CYPES
[22] = DIGSA: crabgrass (Digitaria sanguinalis), 14 days after application, read-out: Visual Growth Reduction (%) 14 Days After Application, DIGSA
[23] = barnyardgrass (Echinochloa crus-galli), 14 Days After Application, read-out: Visual Growth Reduction (%) ECHCG
[24] = common chickweed (Stellaria media), 14 Days After Application, read-out: Visual Growth Reduction (%) STEME
[25] = giant foxtail (Setaria faberi), 14 Days After Application, read-out: Visual Growth Reduction (%) SETFA
[26] = ivy-leaf morning glory (Ipomoea hederacea), 14 Days After Application, read-out: Visual Growth Reduction (%) IPOHE
[27] = johnsongrass (Sorghum vulgare), 14 Days After Application, read-out: Visual Growth Reduction (%) SORVU
[28] = kochia (Bassia scoparia), 14 Days After Application, read-out: Visual Growth Reduction (%) KCHSC
[29] = rice (Oryza sativa), 14 Days After Application, read-out: Visual Growth Reduction (%) ORYSA
[30] = wheat, spring (Triticum aestivum), 14 Days After Application, read-out: Visual Growth Reduction (%) TRZAS

SMILES | pest or weed control at 140 g/ha [1] | pest or weed control at 140 g/ha [2] | pest or weed control at 140 g/ha [3] | pest or weed control at 140 g/ha [4] | pest or weed control at 140 g/ha [5] | pest or weed control at 140 g/ha [6] | pest or weed control at 140 g/ha [7] | pest or weed control at 140 g/ha [8] | pest or weed control at 140 g/ha [9] | pest or weed control at 140 g/ha [10] | pest or weed control at 140 g/ha [11] | pest or weed control at 140 g/ha [12] | pest or weed control at 140 g/ha [13] | pest or weed control at 140 g/ha [16] | pest or weed control at 140 g/ha [17] | pest or weed control at 140 g/ha [18] | pest or weed control at 140 g/ha [19] | pest or weed control at 140 g/ha [20] | pest or weed control at 140 g/ha [21] | pest or weed control at 140 g/ha [22] | also measured
COC(=O)c1nc(-c2ccc(C3(C#N)CC3)cc2Cl)c(F)cc1Cl [F237, Methyl 3-chloro-6-(2-chloro-4-(1-cyanocyclopropyl)phenyl)-5-fluoropicolinate] | 30 to 44% | 95 to 100% | 85 to 94% | 0 to 29% | 75 to 84% | 85 to 94% | 30 to 44% | 45 to 59% | 0 to 29% | 95 to 100% | 85 to 94% | 85 to 94% | 95 to 100% |  |  |  |  |  |  |  | pest or weed control at 140 g/ha [14]: 45 to 59%; pest or weed control at 140 g/ha [15]: 45 to 59%
COC(=O)c1cc2c(c(-c3nc(C(=O)OC)c(Cl)cc3F)c1)OC(F)(F)O2 [F244, Methyl 3-chloro-6-(2,2-difluoro-6-(methoxycarbonyl)benzo[d][1,3]dioxol-4-yl)-5-fluoropicolinate] | 0 to 29% | 0 to 29% | 0 to 29% | 0 to 29% | 0 to 29% | 0 to 29% | 0 to 29% | 0 to 29% | 0 to 29% | 0 to 29% | 0 to 29% | 60 to 74% | 0 to 29% |  |  |  |  |  |  |  | pest or weed control at 140 g/ha [14]: 0 to 29%; pest or weed control at 140 g/ha [15]: 0 to 29%
COC(=O)c1nc(-c2ccc(/C=N/N(C)C)cc2Cl)ccc1Cl [F20, methyl 3-chloro-6-(2-chloro-4-((2,2-dimethylhydrazono)methyl)phenyl) picolinate] |  |  |  |  |  |  |  |  |  |  |  |  |  | 0 to 29% | 0 to 29% | 0 to 29% | 0 to 29% | 0 to 29% | 0 to 29% | 0 to 29% | pest or weed control at 140 g/ha [23]: 0 to 29%; pest or weed control at 140 g/ha [24]: 0 to 29%; pest or weed control at 140 g/ha [25]: 0 to 29%; pest or weed control at 140 g/ha [26]: 60 to 74%; pest or weed control at 140 g/ha [27]: 0 to 29%; pest or weed control at 140 g/ha [28]: 0 to 29%; pest or weed control at 140 g/ha [29]: 0 to 29%; pest or weed control at 140 g/ha [30]: 0 to 29%
O=C(O)c1nc(-c2ccc(SC(F)(F)F)cc2)c(Cl)cc1Cl [F89, 3,5-Dichloro-6-(4-((trifluoromethyl)thio)phenyl) picolinic acid] | 0 to 29% | 0 to 29% | 0 to 29% | 0 to 29% | 0 to 29% | 0 to 29% | 0 to 29% | 0 to 29% |  |  |  |  |  | 0 to 29% | 0 to 29% | 0 to 29% | 45 to 59% | 0 to 29% | 0 to 29% | 30 to 44% | 
C=Cc1ccc(-c2ccc(Cl)c(C(=O)OC)n2)c(Cl)c1 [F23, methyl 3-chloro-6-(2-chloro-4-vinylphenyl)picolinate] | 0 to 29% | 30 to 44% | 0 to 29% | 0 to 29% | 0 to 29% | 0 to 29% | 0 to 29% | 0 to 29% |  |  |  |  |  | 0 to 29% | 0 to 29% | 0 to 29% | 0 to 29% | 0 to 29% | 0 to 29% | 0 to 29% | 
COC(=O)c1nc(-c2ccc(F)cc2)c(F)cc1Cl [F227, Methyl 3-chloro-5-fluoro-6-(4-fluorophenyl) picolinate] | 0 to 29% | 60 to 74% | 0 to 29% | 0 to 29% | 0 to 29% | 60 to 74% | 0 to 29% | 0 to 29% | 0 to 29% | 30 to 44% | 30 to 44% | 75 to 84% | 0 to 29% |  |  |  |  |  |  |  | pest or weed control at 140 g/ha [14]: 0 to 29%; pest or weed control at 140 g/ha [15]: 0 to 29%
COC(=O)c1nc(-c2ccc(C(F)(F)F)cc2Cl)cc(Cl)c1Cl [F108, methyl 3,4-dichloro-6-(2-chloro-4-(trifluoromethyl)phenyl)picolinate] | 0 to 29% | 30 to 44% | 0 to 29% | 0 to 29% | 0 to 29% | 0 to 29% |  | 0 to 29% |  |  |  |  |  | 0 to 29% | 0 to 29% | 0 to 29% | 0 to 29% | 0 to 29% | 0 to 29% | 0 to 29% | 
C#Cc1cc(Cl)c(C(=O)OC)nc1-c1ccc(C(F)(F)F)cc1Cl [F4, Methyl 3-chloro-6-(2-chloro-4-(trifluoromethyl)phenyl)-5-ethynylpicolinate] |  |  |  |  |  |  |  |  |  |  |  |  |  | 0 to 29% | 0 to 29% | 0 to 29% | 85 to 94% | 75 to 84% | 0 to 29% | 0 to 29% | pest or weed control at 140 g/ha [23]: 0 to 29%; pest or weed control at 140 g/ha [24]: 0 to 29%; pest or weed control at 140 g/ha [25]: 0 to 29%; pest or weed control at 140 g/ha [26]: 60 to 74%; pest or weed control at 140 g/ha [27]: 30 to 44%; pest or weed control at 140 g/ha [28]: 0 to 29%; pest or weed control at 140 g/ha [29]: 0 to 29%; pest or weed control at 140 g/ha [30]: 0 to 29%
